In patent US20090180958A1, “Diagnostic and therapeutic agents” (Karyon-CTT Ltd., priority 2005, published 2009):

Legend:
A549 cells = experiment: Fluorescent targeting agent staining of fixed cells; format: cell-based, human; details: 500 μg/ml in PBS, pH 7.4, added prior to F5M-A49
Description: A549 cells and HeLa cells (described in Example 18) were grown on glass slides, washed with PBS and then fixed with methanol. The fluorescent targeting agent F5M-A49 (described in Example 10) was used to stain these cells as follows: Cells were first blocked with blocking buffer (1.0% BSA, 0.05% Tween20 in PBS, pH 7.4) for one hour at 20° C. The cells on the glass slides were incubated with 20 μl of F5M-A49 targeting agent (50 μg/ml in PBS, pH 7.4). As control, binding of F5M-A49 was competed with 20 μl of IS257 targeting unit (free peptide described in Example 3), 500 μg/ml in PBS, pH 7.4) prior to addition of the targeting agent. As negative controls, cells not incubated with any targeting agent were used. After the staining the cells were mounted on object glasses with mountex (Histolab Products Ltd). After this cells were viewed under a fluorescent microscope (Carl Zeiss Microscopy, Jena, Germany).

[1] = Immunogenicity: immunization of mice and serological antibody ELISA; format: in vivo, balb/c female mice; details: i.p. 50 μg day 0, 25 μg days 14, 28, 56, 84; end point bleed day 98, serum 1:40; HP201 as capture antigen
Description: Mice and immunization. Female 6- to 8-week old balb/c female mice (Harlan Laboratories, The Netherlands) were used in this study. The targeting unit IS257 (described in Example 3) was dissolved in sterile saline at 0.5 mg/ml and 0.25 mg/ml concentrations. A group of five mice were initially immunized intraperitoneally with 50 μg of targeting unit on day 0. The following immunizations were done with 25 μg of targeting unit on days 14, 28, 56 and 84. Mice were bled from the tail vein on day 0 (preimmune bleed) and thereafter on days 42, 70, and 98 (end point bleed). Blood was collected in tubes and the serum was clarified by centrifugation at 3500 RPM for 7 minutes. […]
Serological antibody assay. […] The wells were washed five times with washing buffer (PBS containing 0.05% Tween20) before incubating for 1 h at 37° C. with 150 μl of a 1:1000 dilution of horseradish peroxidase conjugated Affinipure of goat anti-mouse IgG+IgM (Jackson ImmunoResearch Europe Ltd) and detected with a DAB (3,3′-diaminobentzidine) substrate kit for peroxidase (Vector Laboratories).
As a positive control the horseradish peroxidase conjugated Affinipure goat anti-mouse IgG+IgM (10 μg/ml) was used to coat the wells of Reacti-Bind Maleimide activated clear strip plate overnight at 4° C. […] The plates were read at 405 nm using an ELISA plate reader (ThermoLabsysrems Multiskan EX).

[2] = tested on: A549, NCI-H23, NCI-H520, NCI-H460, C8161/M1, HeLa, NIH3T3, E10V, SVEC4-10 cell lines; experiment: Cytotoxicity assay (MTT); format: cell-based; details: 50 μg/ml and 500 μg/ml; 24 h, 48 h (72 h); all nine tested cell lines
Description: In this assay cell lines were exposed to two different concentrations (50 μg/and 500 μg/ml) of IS257 targeting unit (described in Example 3) for two to three days to test the toxicity of the peptides. The measurement of cell viability was done with MTT (Thiazolyl blue, Sigma M-5655 ) tetrazolium salt. MTT is cleaved to water-insoluble formazan dye by the “succinate-tetrazolium reductase” system which is active only in viable cells. After formazan was solubilized by 10% SDS-0.01 M HCl, it was quantified in an ELISA spectrometer (ThermoLabsystems Multiscan EX) at 560 nm. CuSAO2 [trans-bis(salicylaldoximato) copper(II)] (Elo HO, Lumme PO., 1985) 7.5 μg/ml was used as a positive control for 100% toxicity.
Procedure. Cells were trypsinized from the cell culture dish (ø9 cm) with 1 ml of TE for 1-5 minutes and moved to a 50 ml Falcon tube. […]
Then 40 μl of IS257 targeting unit in appropriate medium were added to the wells in two concentrations, so that final concentrations were 50 μg/ml and 500 μg/ml, and the volume of the wells was raised back to 100 μl. […] The next day the cell morphology was analyzed with a microscope. […]
The next day, the MTT assay described above was performed. The viable count (v.c.) was calculated as:
Average toxicated cell absorbance−Average DMEM absorbance=Viable count Average living cell absorbance−Average DMEM absorbance […]

[3] = In vivo cytotoxicity (behaviour after i.v. injection); set-up: species or system Athymic nude mice; details: 1 mg i.v. tail vein; observed 30 min after injection and 15 min on following day
Description: The behaviour of mice was observed during 30 min right after injection and during 15 min on the following day (comparison to non-injected mouse). Three mice were taken into this study (plus non-injected controls).

Substance: Ac-ARRPKLD-NH2 [IS257]
- competition of F5M-A49 binding to A549 cells by free peptide (A549 cells): blocked
- immunogenicity (anti-targeting unit antibodies in serum, ELISA, absorbance at 405 nm) [1]: non-immunogenic
- toxicity to cell lines (viable count, MTT) [2]: non-toxic
- toxic effect on mice (behaviour) [3]: did not have any toxic effect
